Source: patent US12479830B2, “Homopiperazinyl and homopiperidinyl quinazolin-4(3H)-one derivatives having multimodal activity against pain” (ESTEVE PHARMACEUTICALS, S.A., priority 2019, dated 2025)

Legend:
[1] = target: Human α2δ-1 subunit of Cav2.2 calcium channel (Homo sapiens, UniProt P54289); assay: Human α2δ-1 subunit of Cav2.2 calcium channel assay ([3H]-gabapentin binding); conditions: binding to the α2δ-1 subunit of voltage-gated calcium channels, expressed as Ki class; + also covers inhibition between 1% and 50%
Description: Human α2δ-1 Subunit of Cav2.2 Calcium Channel Assay
Human α2δ-1 enriched membranes (2.5 μg) were incubated with 15 nM of radiolabeled [^3H]-Gabapentin in assay buffer containing Hepes-KOH 10 mM. pH 7.4. NSB (non specific binding) was measured by adding 10 μM pregabalin. The binding of the test compound was measured at either one concentration (% inhibition at 1 or 10 μM) or five different concentrations to determine affinity values (Ki). After 60 min incubation at 27° C., binding reaction was terminated by filtering through Multiscreen GF/C (Millipore) presoaked in 0.5% polyethyleneimine in Vacuum Manifold Station, followed by 3 washes with ice-cold filtration buffer containing 50 mM Tris-HCl, pH 7.4. Filter plates were dried at 60° C. for 1 h and 30 μL of scintillation cocktail were added to each well before radioactivity reading. Readings were performed in a Trilux 1450 Microbeta radioactive counter (Perkin Elmer).

Human σ1 receptor = target: T1, Human σ1 receptor (Homo sapiens, UniProt Q99720); assay: Human σ1 receptor radioligand assay ([3H](+)-pentazocine binding); conditions: binding to the σ1 receptor, expressed as Ki class; + also covers inhibition between 1% and 50%
T1 construct: expressed in transfected cells; host or cells: HEK-293
Description: Human σ1 Receptor Radioligand Assay
Transfected HEK-293 membranes (7 μg) were incubated with 5 nM of [^3H](+)-pentazocine in assay buffer containing Tris-HCl 50 mM at pH 8. NBS (non-specific binding) was measured by adding 10 μM haloperidol. The binding of the test compound was measured at either one concentration (% inhibition at 1 or 10 μM) or five different concentrations to determine affinity values (Ki). Plates were incubated at 37° C. for 120 minutes. After the incubation period, the reaction mix was then transferred to MultiScreen HTS, FC plates (Millipore), filtered and plates were washed 3 times with ice-cold 10 mM Tris-HCL (pH7.4). Filters were dried and counted at approximately 40% efficiency in a MicroBeta scintillation counter (Perkin-Elmer) using EcoScint liquid scintillation cocktail.

Chain of Human α2δ-1 subunit of Cav2.2 calcium channel (P54289 25-1103): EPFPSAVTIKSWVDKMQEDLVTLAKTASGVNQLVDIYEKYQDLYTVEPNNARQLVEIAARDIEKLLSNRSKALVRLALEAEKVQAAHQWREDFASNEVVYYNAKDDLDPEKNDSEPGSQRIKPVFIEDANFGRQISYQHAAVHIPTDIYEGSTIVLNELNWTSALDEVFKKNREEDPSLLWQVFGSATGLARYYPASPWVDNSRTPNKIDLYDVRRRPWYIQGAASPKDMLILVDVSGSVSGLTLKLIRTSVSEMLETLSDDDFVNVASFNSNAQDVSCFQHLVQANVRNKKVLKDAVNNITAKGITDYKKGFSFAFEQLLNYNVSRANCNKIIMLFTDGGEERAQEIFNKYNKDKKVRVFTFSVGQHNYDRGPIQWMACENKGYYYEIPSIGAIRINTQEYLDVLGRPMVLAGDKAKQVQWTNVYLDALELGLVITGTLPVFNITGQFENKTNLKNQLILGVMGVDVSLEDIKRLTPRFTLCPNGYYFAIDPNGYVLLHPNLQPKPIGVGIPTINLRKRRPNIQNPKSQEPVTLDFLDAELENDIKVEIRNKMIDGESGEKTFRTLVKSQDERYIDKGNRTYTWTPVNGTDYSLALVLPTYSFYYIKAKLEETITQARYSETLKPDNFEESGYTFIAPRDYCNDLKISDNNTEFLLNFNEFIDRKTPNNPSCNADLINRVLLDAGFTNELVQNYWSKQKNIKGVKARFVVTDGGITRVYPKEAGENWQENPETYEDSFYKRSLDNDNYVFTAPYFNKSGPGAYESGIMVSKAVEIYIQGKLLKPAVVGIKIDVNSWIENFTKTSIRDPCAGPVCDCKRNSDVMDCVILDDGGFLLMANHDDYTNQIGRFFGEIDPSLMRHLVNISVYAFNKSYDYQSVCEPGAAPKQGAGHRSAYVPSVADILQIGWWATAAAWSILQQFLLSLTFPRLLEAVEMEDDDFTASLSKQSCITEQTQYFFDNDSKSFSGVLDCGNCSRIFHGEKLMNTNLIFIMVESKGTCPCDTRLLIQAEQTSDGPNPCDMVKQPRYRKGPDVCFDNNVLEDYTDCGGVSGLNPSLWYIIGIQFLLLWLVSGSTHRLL
T1 sequence (Q99720 whole entry): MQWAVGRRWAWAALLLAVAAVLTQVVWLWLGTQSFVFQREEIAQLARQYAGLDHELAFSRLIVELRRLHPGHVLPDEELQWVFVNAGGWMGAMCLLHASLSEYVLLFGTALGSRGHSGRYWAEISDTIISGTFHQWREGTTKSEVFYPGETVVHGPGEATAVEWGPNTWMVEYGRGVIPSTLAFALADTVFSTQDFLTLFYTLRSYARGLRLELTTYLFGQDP

Ki [1] | Ki (Human σ1 receptor) | Compound
< 500 nM | > 1000 nM | CCC[C@H](c1nc2ccc(Br)cc2c(=O)n1CC)N1CCN(C)C[C@@H](C)C1 [Example 35, 6-bromo-2-((R)-1-((R)-4,6-dimethyl-1,4-diazepan-1-yl)butyl)-3-ethylquinazolin-4(3H)-one]
< 500 nM | 500 to 1000 nM | CCC[C@H](c1nc2ccc(Br)cc2c(=O)n1CC)N1CCN(C)C[C@H](C)C1 [Example 36, 6-bromo-2-((R)-1-((S)-4,6-dimethyl-1,4-diazepan-1-yl)butyl)-3-ethylquinazolin-4(3H)-one]
> 5000 nM | > 1000 nM | CCC[C@@H](c1nc2ccc(Br)cc2c(=O)n1CC)N1CCN(C)C[C@H](C)C1 [Example 37, 6-bromo-2-((S)-1-((S)-4,6-dimethyl-1,4-diazepan-1-yl)butyl)-3-ethylquinazolin-4(3H)-one]
> 5000 nM | > 1000 nM | CCC[C@@H](c1nc2ccc(Br)cc2c(=O)n1CC)N1CCN(C)C[C@@H](C)C1 [Example 38, 6-bromo-2-((S)-1-((R)-4,6-dimethyl-1,4-diazepan-1-yl)butyl)-3-ethylquinazolin-4(3H)-one]
< 500 nM | 500 to 1000 nM | CCCC(c1nc2cc(C)c(Br)cc2c(=O)n1CC)N1CCCN(C)CC1 (stereo not drawn) [Example 39, 6-bromo-3-ethyl-7-methyl-2-(1-(4-methyl-1,4-diazepan-1-yl)butyl)quinazolin-4(3H)-one]
< 500 nM | 500 to 1000 nM | CCCC(c1nc2c(F)cc(Br)cc2c(=O)n1CC)N1CCCN(C)CC1 (stereo not drawn) [Example 40, 6-bromo-3-ethyl-8-fluoro-2-(1-(4-methyl-1,4-diazepan-1-yl)butyl)quinazolin-4(3H)-one]
> 5000 nM | > 1000 nM | CCCC(c1nc2ccc(Br)c(C)c2c(=O)n1CC)N1CCCNCC1 (stereo not drawn) [Example 41, 2-(1-(1,4-diazepan-1-yl)butyl)-6-bromo-3-ethyl-5-methylquinazolin-4(3H)-one]
> 5000 nM | > 1000 nM | CCCC(c1nc2ccc(Br)cc2c(=O)n1CC)N1CCN(C)CC(F)(F)C1 (stereo not drawn) [Example 42, 6-bromo-2-(1-(6,6-difluoro-4-methyl-1,4-diazepan-1-yl)butyl)-3-ethylquinazolin-4(3H)-one]
< 500 nM | < 500 nM | CCCC(c1nc2ccc(F)cc2c(=O)n1CC(C)C)N1CCCN(C)CC1 (stereo not drawn) [Example 43, 6-fluoro-3-isobutyl-2-(1-(4-methyl-1,4-diazepan-1-yl)butyl)quinazolin-4(3H)-one]
< 500 nM | > 1000 nM | CCCC(c1nc2cc(C)c(Br)cc2c(=O)n1CC)N1CCCNCC1 (stereo not drawn) [Example 44, 2-(1-(1,4-diazepan-1-yl)butyl)-6-bromo-3-ethyl-7-methylquinazolin-4(3H)-one]
< 500 nM | > 1000 nM | CCCC(c1nc2cc(F)c(F)cc2c(=O)n1CC)N1CCCNCC1 (stereo not drawn) [Example 45, 2-(1-(1,4-diazepan-1-yl)butyl)-3-ethyl-6,7-difluoroquinazolin-4(3H)-one]
< 500 nM | < 500 nM | CCCC(c1nc2cc(F)c(F)cc2c(=O)n1CC)N1CCCN(CC)CC1 (stereo not drawn) [Example 46, 3-ethyl-2-(1-(4-ethyl-1,4-diazepan-1-yl)butyl)-6,7-difluoroquinazolin-4(3H)-one]
500 to 5000 nM | < 500 nM | CCCC(c1nc2ccc(Br)c(C)c2c(=O)n1CC)N1CCCN(CC)CC1 (stereo not drawn) [Example 47, 6-bromo-3-ethyl-2-(1-(4-ethyl-1,4-diazepan-1-yl)butyl)-5-methylquinazolin-4(3H)-one]
< 500 nM | < 500 nM | CCCC(c1nc2cc(C)c(Br)cc2c(=O)n1CC)N1CCCN(CC)CC1 (stereo not drawn) [Example 48, 6-bromo-3-ethyl-2-(1-(4-ethyl-1,4-diazepan-1-yl)butyl)-7-methylquinazolin-4(3H)-one]
> 5000 nM | 500 to 1000 nM | CCCC(c1nc2c(Cl)cc(Br)cc2c(=O)n1CC)N1CCCN(C)CC1 (stereo not drawn) [Example 49, 6-bromo-8-chloro-3-ethyl-2-(1-(4-methyl-1,4-diazepan-1-yl)butyl)quinazolin-4(3H)-one]
< 500 nM | < 500 nM | CCCC(c1nc2ccc(F)cc2c(=O)n1CC(C)C)N1CCCN(CC)CC1 (stereo not drawn) [Example 50, 2-(1-(4-ethyl-1,4-diazepan-1-yl)butyl)-6-fluoro-3-isobutylquinazolin-4(3H)-one]

Ki [1] | Ki (Human σ1 receptor) | Compound
500 to 5000 nM | < 500 nM | CCCC(c1nc2ccc(Br)c(F)c2c(=O)n1CC)N1CCCN(CC)CC1 (stereo not drawn) [Example 52, 6-bromo-3-ethyl-2-(1-(4-ethyl-1,4-diazepan-1-yl)butyl)-5-fluoroquinazolin-4(3H)-one]
500 to 5000 nM | < 500 nM | CCCC(c1nc2cccc(Br)c2c(=O)n1CC)N1CCCN(C)CC1 (stereo not drawn) [Example 53, 5-bromo-3-ethyl-2-(1-(4-methyl-1,4-diazepan-1-yl)butyl)quinazolin-4(3H)-one]
< 500 nM | 500 to 1000 nM | CCCC(c1nc2ccc(Br)cc2c(=O)n1CC(C)C)N1CCCN(C)CC1 (stereo not drawn) [Example 54, 6-bromo-3-isobutyl-2-(1-(4-methyl-1,4-diazepan-1-yl)butyl)quinazolin-4(3H)-one]
500 to 5000 nM | > 1000 nM | CCCC(c1nc2c(F)cc(Br)cc2c(=O)n1CC)N1CCCNCC1 (stereo not drawn) [Example 55, 2-(1-(1,4-diazepan-1-yl)butyl)-6-bromo-3-ethyl-8-fluoroquinazolin-4(3H)-one]
500 to 5000 nM | < 500 nM | CCCC(c1nc2ccc(Br)c(Cl)c2c(=O)n1CC)N1CCCN(C)CC1 (stereo not drawn) [Example 56, 6-bromo-5-chloro-3-ethyl-2-(1-(4-methyl-1,4-diazepan-1-yl)butyl)quinazolin-4(3H)-one]
500 to 5000 nM | 500 to 1000 nM | CCCC(c1nc2c(F)cc(Br)cc2c(=O)n1CC)N1CCCN(CC)CC1 (stereo not drawn) [Example 57, 6-bromo-3-ethyl-2-(1-(4-ethyl-1,4-diazepan-1-yl)butyl)-8-fluoroquinazolin-4(3H)-one]
< 500 nM | < 500 nM | CCCC(c1nc2ccc(Br)cc2c(=O)n1CC(C)C)N1CCCN(CC)CC1 (stereo not drawn) [Example 58, 6-bromo-2-(1-(4-ethyl-1,4-diazepan-1-yl)butyl)-3-isobutylquinazolin-4(3H)-one]
< 500 nM | > 1000 nM | CCCC(c1nc2ccc(Br)c(F)c2c(=O)n1CC)N1CCCNCC1 (stereo not drawn) [Example 59, 2-(1-(1,4-diazepan-1-yl)butyl)-6-bromo-3-ethyl-5-fluoroquinazolin-4(3H)-one]
> 5000 nM | < 500 nM | CCCC(c1nc2c(C)cc(Br)cc2c(=O)n1CC)N1CCCN(CC)CC1 (stereo not drawn) [Example 60, 6-bromo-3-ethyl-2-(1-(4-ethyl-1,4-diazepan-1-yl)butyl)-8-methylquinazolin-4(3H)-one]
< 500 nM | < 500 nM | CCCC(c1nc2cc(F)c(Br)cc2c(=O)n1CCC)N1CCCN(CC)CC1 (stereo not drawn) [Example 61, 6-bromo-2-(1-(4-ethyl-1,4-diazepan-1-yl)butyl)-7-fluoro-3-propylquinazolin-4(3H)-one]
< 500 nM | < 500 nM | CCCC(c1nc2cc(Br)c(F)cc2c(=O)n1CCC)N1CCCN(CC)CC1 (stereo not drawn) [Example 62, 7-bromo-2-(1-(4-ethyl-1,4-diazepan-1-yl)butyl)-6-fluoro-3-propylquinazolin-4(3H)-one]
< 500 nM | < 500 nM | CCCC(c1nc2cc(Br)c(F)cc2c(=O)n1CC)N1CCCN(CC)CC1 (stereo not drawn) [Example 63, 7-bromo-3-ethyl-2-(1-(4-ethyl-1,4-diazepan-1-yl)butyl)-6-fluoroquinazolin-4(3H)-one]
> 5000 nM | > 1000 nM | CCCC(c1nc2c(Cl)cc(F)cc2c(=O)n1CC)N1CCCN(C)CC1 (stereo not drawn) [Example 64, 8-chloro-3-ethyl-6-fluoro-2-(1-(4-methyl-1,4-diazepan-1-yl)butyl)quinazolin-4(3H)-one]
> 5000 nM | > 1000 nM | CCCC(c1nc2c(Cl)cc(F)cc2c(=O)n1CC)N1CCCN(CC)CC1 (stereo not drawn) [Example 65, 8-chloro-3-ethyl-2-(1-(4-ethyl-1,4-diazepan-1-yl)butyl)-6-fluoroquinazolin-4(3H)-one]
< 500 nM | > 1000 nM | CCC[C@H](c1nc2ccc(Br)cc2c(=O)n1CCC)N1CCNC[C@H](C)C1 [Example 67, 6-bromo-2-((R)-1-((S)-6-methyl-1,4-diazepan-1-yl)butyl)-3-propylquinazolin-4(3H)-one]
< 500 nM | > 1000 nM | CCC[C@H](c1nc2ccc(Br)cc2c(=O)n1CCC)N1CCNC[C@@H](C)C1 [Example 68, 6-bromo-2-((R)-1-((R)-6-methyl-1,4-diazepan-1-yl)butyl)-3-propylquinazolin-4(3H)-one]

Compound | Ki [1] | Ki (Human σ1 receptor)
CCC[C@H](c1nc2ccc(Br)cc2c(=O)n1CC)N1CCN2CCC1CC2 [Example 66, (R)-2-(1-(1,4-diazabicyclo[3.2.2]nonan-4-yl)butyl)-6-bromo-3-ethylquinazolin-4(3H)-one] | > 5000 nM | > 1000 nM
